Where two headings read alike, the source gives them in different places.
Tests used:
[1] = tested on: ovarian cancer, patients with measurable disease; design: method as in PMID 32073956; conditions: olaparib alone; cited from earlier work
[2] = clinical; design: species or system human; conditions: in vivo; for Cmax: female
From the text: (§1) No formal statistical analyses were planned.

[3] = tested on: cGAS-STING pathway; assay: RNA sequencing signature in longitudinal tumour biopsies: cGAS-STING; assay type: in vivo, human; conditions: during rucaparib run-in, in four of five responders
From the text: (§2) All patients (Parts 1 and 2) were required to have sufficient archival formalin-fixed paraffin-embedded (FFPE) tumour tissue available for planned analyses. […] A further biopsy at disease progression was optional. Tumour and biomarker characteristics are described according to central review result. However, patients could be enrolled or assigned to a cohort based on local test results, to avoid delaying treatment initiation. […] Patients were ineligible if they had previously received treatment with a PARPi, CD137 agonist, or other ICI (including but not limited to anti-PD-1, anti-PD-L1, and anti-CTLA-4 therapeutic antibodies). […] RNA sequencing reads were first aligned to ribosomal RNA sequences to remove ribosomal reads. The remaining reads were aligned to the human reference genome (National Center for Biotechnology Information Build 38) using Genomic Short-read Nucleotide Alignment Program (GSNAP) version 2013-11-01. To quantify gene expression levels, the number of reads mapped to the exons of each RefSeq gene was calculated using the functionality provided by the R/Bioconductor package GenomicAlignments. For each cohort, raw counts for genes were trimmed mean of M-values (TMM)-normalised based on size factors as calculated with CalcNormFactors in the edgeR package. […]

[4] = tested on: CD274 (PD-L1 gene); assay: RNA sequencing in longitudinal tumour biopsies: CD274; assay type: in vivo, human; conditions: after rucaparib run-in, responders (not in non-responders)
From the text: as §2

[5] = tested on: DNA damage repair signature; assay: RNA sequencing signature in longitudinal tumour biopsies: DDR; assay type: in vivo, human; conditions: after the rucaparib run-in
From the text: as §2

[6] = From the text: The primary objective was to evaluate the safety and tolerability of the combination by identifying dose-limiting toxicities (DLTs; Supplementary Table 1) that determined the maximum tolerated dose and identifying a potential recommended dose and schedule for subsequent assessments. Safety endpoints included the incidence, nature, and severity of adverse events (AEs) and DLTs according to National Cancer Institute Common Terminology Criteria for Adverse Events version 4.03. Secondary efficacy endpoints comprised objective response rate (ORR) according to Response Evaluation Criteria in Solid Tumours (RECIST) version 1.1, duration of response, progression-free survival (PFS) according to RECIST version 1.1, and overall survival (OS). The PK objective was to determine the PK of rucaparib and atezolizumab combination therapy in plasma and serum, with pre-specified parameters including steady-state maximum concentration observed (Cmax), time to maximum concentration (Tmax), and area under the concentration–time curve (AUC) for rucaparib and serum concentration of atezolizumab in Part 1, and minimum concentration during the dosing interval or trough concentration (Cmin) of rucaparib and serum concentration of atezolizumab in Part 2. The incidence of antidrug antibodies (ADAs) to atezolizumab was an additional secondary endpoint. The study also included pre-specified exploratory biomarker objectives: to evaluate predictive and pharmacodynamic biomarkers of response or resistance to combined rucaparib and atezolizumab therapy in tumour biopsies and blood; and to evaluate additional biomarkers of HRD and novel biomarkers and correlate them with response and/or clinical outcome, including efficacy and safety. No formal statistical analyses were planned.
In Part 1 (dose-finding phase), patients with histologically confirmed ovarian or endometrial cancer who had received at least one prior line of therapy for metastatic disease received varying doses of oral rucaparib (400 mg twice daily in the first cohort, 600 mg twice daily in the second cohort, decreasing to 500 mg in the third cohort if necessary) in combination with a fixed dose of intravenous atezolizumab 1200 mg on Day 1. Cycles were repeated every 21 days and continued until unacceptable toxicity or disease progression if, in the investigator’s opinion, the patient would not derive clinical benefit from continued study treatment. It was planned to enroll ~six to 18 patients in up to three dose cohorts. […] In Part 2 (dose-expansion phase), the recommended Phase II dose was evaluated further for safety, PK, and preliminary activity in two tumour-specific expansion cohorts with an initially targeted enrollment of up to ~50 patients in total. In Cohort 1, eligible patients had platinum-sensitive high-grade serous or grade 3 endometrioid epithelial ovarian, fallopian tube, or primary peritoneal cancer with tumours harbouring a deleterious germline or somatic BRCA mutation (tBRCAmut, Arm A) or a tBRCA-like molecular signature (tBRCA-wild type [wt]/loss of heterozygosity [LOH]high, Arm B). Patients had received one to two prior platinum-containing regimens, with progression >6 months after the last dose of the most recent platinum therapy. In Cohort 2 (Arm C), patients had tBRCAmut or tBRCAwt/LOHhigh TNBC and had received at least one prior line of chemotherapy (without cancer immunotherapy) in the metastatic setting. Part 2 treatment comprised a 21-day run-in period of single-agent rucaparib at the identified recommended rucaparib starting dose (run-in), followed by rucaparib in combination with intravenous atezolizumab 1200 mg on Day 1 (combination). Cycles were repeated every 21 days.

[7] = tested on: CD8 T-cell activity signature; assay: RNA sequencing signature in longitudinal tumour biopsies: CD8 T-cell activity; assay type: in vivo, human; conditions: during rucaparib run-in, in four of five responders
From the text: as §2

[8] = tested on: Apoptosis signature; assay: RNA sequencing signature in longitudinal tumour biopsies: apoptosis; assay type: in vivo, human; conditions: during run-in, responding patients
From the text: as §2

[9] = tested on: antidrug antibodies (ADAs) to atezolizumab; assay: Incidence of antidrug antibodies (ADAs) to atezolizumab; assay type: in vivo, human; conditions: one of 28 patients evaluable for ADA
From the text: as §1

[10] = Atezolizumab serum concentration (sparse PK sampling); assay type: in vivo
From the text: as §1

[11] = Part 2 TNBC Arm C, n = 5, run-in
[12] = Part 2 ovarian cancer Arms A + B, n = 14, run-in
[13] = Cycle 1 arithmetic mean (CV), sparse PK sampling, Part 2 ovarian cancer Arm B (tBRCAwt/LOHhigh), n = 4

O=C(c1cc(Cc2n[nH]c(=O)c3ccccc23)ccc1F)N1CCN(C(=O)C2CC2)CC1 [olaparib]
ORR [1]: 72%

CNCc1ccc(-c2[nH]c3cc(F)cc4c3c2CCNC4=O)cc1 [rucaparib]
Cmax ([2]; human, 400 mg): 2270 ng/mL
Cmax ([2]; human, 600 mg): 3180 ng/mL
Inter-individual variability in exposure, AUC ([2]; human): 21.2–41.6%
Inter-individual variability in exposure, Cmax ([2]; human): 27.4–46.8%
Inter-individual variability in exposure, Cmin ([2]; human): 28.6–88.7%
Tmax ([2]; human): 1.5 to 6 h
Rucaparib AUClast ([2]; human, 400 mg): (n = 2) 15 072 (21.2) h·ng/mL
Rucaparib AUClast ([2]; human, 600 mg): (n = 6) 22 082 (41.6) h·ng/mL
Rucaparib Cmin ([2]; human, 21 days): (n = 5) 1180 (52.5) ng/mL
Dose proportionality of kinetics [2]: dose-proportional kinetics
Increase in cGAS-STING pathway activation [3]: > 100%
Patients with increased CD274 expression [4]: three of five
Patients with decreased DDR signature ([5]; non-responders (by <10%)): one of four
Patients with decreased DDR signature ([5]; responders): four of five
Grade 5 AE [6, 11]: 0 n (%)
Grade 5 AE [6, 12]: 0 n (%)
AE leading to treatment modification/interruption: Rucaparib ([6]; human, in vivo): 1 (20) n (%)
AE leading to treatment discontinuation ([6]; human, in vivo, 21 days): 0 n (%)
AE leading to treatment modification/interruption ([6]; human, in vivo, 21 days): 1 (20) n (%)
AE leading to treatment modification/interruption: Rucaparib ([6]; human, in vivo, 21 days): 1 (20) n (%)
Any grade AE ([6]; human, in vivo, 21 days): 5 (100) n (%)
Grade 3/4 AE ([6]; human, in vivo, 21 days): 2 (40) n (%)
Treatment-related AE ([6]; human, in vivo, 21 days): 4 (80) n (%)
Increase in CD8 + T-cell activity [7]: > 50%
Patients with increased apoptosis signature expression [8]: three of five

atezolizumab
Patients positive for treatment-emergent ADAs [9]: 4%
Atezolizumab Cmin ([10]; Cycle 1 arithmetic mean (CV), sparse PK sampling, Part 1 Cohort 1, n = 3): (n = 3) 84.3 (32.0) μg/mL
Atezolizumab Cmin ([10]; Cycle 1 arithmetic mean (CV), sparse PK sampling, Part 1 Cohort 2, n = 5): (n = 5) 96.0 (23.8) μg/mL
Atezolizumab Cmin ([10]; Cycle 1 arithmetic mean (CV), sparse PK sampling, Part 2 TNBC Arm C, n = 4): (n = 4) 98.7 (26.3) μg/mL
Atezolizumab Cmin ([10]; Cycle 1 arithmetic mean (CV), sparse PK sampling, Part 2 ovarian cancer Arm A (tBRCAmut), n = 10): (n = 10) 77.2 (22.1) μg/mL
Atezolizumab Cmax [10, 13]: (n = 4) 438 (9.4) μg/mL
Atezolizumab Cmin [10, 13]: (n = 4) 95.7 (17.9) μg/mL
Trough concentrations (Ctrough) ([10]; all trough concentrations exceeded the target concentration for maximal receptor occupancy): > 6000 ng/mL
Inter-patient variability, Cmax ([10]; atezolizumab): 7.0–35.3%
Inter-patient variability, Cmin ([10]; atezolizumab): 17.9–32.0%
AE leading to treatment modification/interruption: Atezolizumab ([6]; Part 1 Cohort 1 (rucaparib 400 mg), n = 3): 1 (33) n (%)
AE leading to treatment modification/interruption: Atezolizumab ([6]; Part 1 Cohort 2 (rucaparib 600 mg), n = 6): 1 (17) n (%)
AE leading to treatment modification/interruption: Atezolizumab ([6]; Part 2 TNBC Arm C, n = 5, post run-in): 1 (20) n (%)
AE leading to treatment modification/interruption: Atezolizumab [6, 11]: 0 n (%)
AE leading to treatment modification/interruption: Atezolizumab ([6]; Part 2 ovarian cancer Arms A + B, n = 14, post run-in): 5 (36) n (%)
AE leading to treatment modification/interruption: Atezolizumab [6, 12]: 0 n (%)

Reference: article PMC11369183, “PARP inhibition with rucaparib alone followed by combination with atezolizumab: Phase Ib COUPLET clinical study in advanced gynaecological and triple-negative breast cancers” (British Journal of Cancer, 2024)
